Source: patent publication US7473524B2, “Mutational profiles in HIV-1 protease correlated with phenotypic drug resistance” (priority 2002, dated 2009)

Key:
Format in all cases: cell-based
[1] = system: HIV-1/LAI-derived strain I031L/I, Y181C, G190E, T386A; experiment: Antiviral activity in MT4 cells, low MOI strain selected at 5.000 μM, day 35; settings: for Fold resistance: Comp. 1 5.000 μM, vs wild type; for EC50: Human immunodeficiency virus 1, MT4, Comp. 1 5.000 μM, read-out: median(EC50 (μM))
Experimental: (§1) Determination of the antiviral activity of a compound was done as described in Pauwels R. et al. (J Virol Methods 1988; 20(4):309-21). Various concentrations of the test compounds were brought into each well of a flat-bottom microtiter plate. Subsequently, HIV and MT4 cells were added to a final concentration of 200-250 50% cell culture infectious doses (CCID50)/well and 30,000 cells/well, respectively. After 5 days of incubation (37° C., 5% CO2), the cytopathic effect of the replicating virus was determined by the tetrazolium colorimetric MTT method. The dose protecting 50% of the cells from virus cytopathic effect was defined as the EC50, while the dose achieving 90% protection was defined as the EC90.
(§2) The reporter gene assay used MT4-LTR-EGFP cells. Upon infection by HIV-1, the expression of the viral tat product increases transcription from the HIV-1 LTR promoter, leading to high-level expression of the reporter gene product. The assay procedure was similar to the CPE assay except for the end reading of the assay, which was performed on day 3 by measuring the relative fluorescence of treated cultures and comparing this with the relative fluorescence of untreated cultures. The EC50 or the EC90 of a compound was defined as the concentration that inhibited the relative fluorescence by 50% or 90% respectively.
(§3) MT4-LTR-EGFP cells were infected at a multiplicity of infection (MOI) of 0.01 to 0.001 CCID50/cell in the presence of inhibitor. The cultures were sub-cultivated and scored microscopically on virus-induced fluorescence and cytopathogenicity every 3-4 days. The cultures were sub-cultivated in the presence of the same compound concentration until signs of virus replication were observed. The escaping virus was further cultivated in the presence of the same inhibitor concentration in order to enrich the population in resistant variants. If full virus breakthrough was observed the supernatant was collected and stored (new virus strain). Afterwards, the same virus was challenged with a higher compound concentration in order to select variants able to grow in the presence of as high as possible inhibitor concentrations. From the new viruses, a virus stock was grown in the absence of inhibitor.
(§4) The in vitro antiviral activity of compound 1 and current reverse transcriptase inhibitors against the selected strains was evaluated in acutely infected MT4 cells. Median EC50 values together with the fold change in resistance (expressed as a ration of EC50) as compared to wild type (FC) are reported.

[2] = system: HIV-1/LAI-derived strain Y181C, T386A; experiment: Antiviral activity in MT4 cells, low MOI strain selected at 0.040 μM, day 15; settings: Comp. 1 0.040 μM; for Fold resistance: vs wild type; for EC50: Human immunodeficiency virus 1, MT4, 360 h, read-out: median(EC50 (μM))
Experimental: as §1, §2, §3, §4

[3] = system: HIV-1/LAI-derived strain L100L/I, Y181C, T386A; experiment: Antiviral activity in acutely infected MT4 cells, strain selected at high MOI with compound 1 0.200 μM; settings: for EC50: Human immunodeficiency virus 1, MT4, 600 h, day 25, read-out: median(EC50 (μM)); for Fold resistance: day 25, vs wild type
Experimental: as §1, §2
(§5) Cells are infected at a high MOI (such as 1-50 CCID50/cell), corresponding to >10^9 viral RNA copies/ml. These experiments have been designed to mimic the quasi-species variability that is observed in HIV infected individuals where 10^9 to 10^10 new viruses are produced daily with a mutation rate of 10^−4 to 10^−5. The infected MT4-LTR-EGFP cells are treated with inhibitors at 40, 200 nM, 1 μM and higher for a maximum of 30 days. The cultures are subcultivated and scored on virus-induced fluorescence and cytopathicity every 3-4 days. If full virus breakthrough (100% CPE) is observed the supernatants was collected and stored (new virus strain). If no full CPE was observed the cells were subcultivated and further grown in the presence of the same concentration compound till full virus breakthrough, with a maximum of 30 days. From the emerging virus populations a virus stock was grown in the absence of compounds and titrated. The sensitivities of the isolated strains to HIV-1 RT inhibitors were determined and the strains were genotyped.
as §4

HIV-1/LAI [4] = experiment: In vitro selection of resistant strains, low MOI, MT4-LTR-EGFP cells; settings: Y181C, T386A
From the text: as §3
(§6) In vitro drug selection experiments starting from wild-type HIV-1/LAI under pressure of compound 1, Efavirenz and Nevirapine have been performed.

[5] = system: HIV-1/LAI-derived strain E006E/K, Y181C, M230I, T386A; experiment: Antiviral activity in MT4 cells, low MOI strain selected at 0.200 μM, day 22; settings: Comp. 1 0.200 μM; for Fold resistance: vs wild type; for EC50: Human immunodeficiency virus 1, MT4, 528 h, read-out: median(EC50 (μM))
Experimental: as §1, §2, §3, §4

HIV-1/LAI [6] = experiment: Antiviral activity in acutely infected MT4 cells, wild-type reference strain; settings: for EC50: Human immunodeficiency virus 1, wild-type HIV-1/LAI, no selection, MT4 cells, read-out: median(EC50 (μM)); for Fold resistance: wild-type HIV-1/LAI (reference), ratio of EC50 to wild type
Experimental: as §1, §2, §4

[7] = system: HIV-1/LAI-derived strain I031L/I, F116F/L, Y181C, G190E, T386A; experiment: Antiviral activity in MT4 cells, low MOI strain selected at 5.000 μM, day 42; settings: for Fold resistance: Comp. 1 5.000 μM, vs wild type; for EC50: Human immunodeficiency virus 1, MT4, Comp. 1 5.000 μM, read-out: median(EC50 (μM))
Experimental: as §1, §2, §3, §4

[8] = system: HIV-1/LAI-derived strain M164M/I, Y181C, D186D/N, M230M/I, T386A; experiment: Antiviral activity in MT4 cells, low MOI strain selected at 0.200 μM, day 28; settings: Comp. 1 0.200 μM; for Fold resistance: vs wild type; for EC50: Human immunodeficiency virus 1, MT4, 672 h, read-out: median(EC50 (μM))
Experimental: as §1, §2, §3, §4

[9] = system: HIV-1/LAI-derived strain I031L, A062A/V, L074L/V, Y181C, G190E, T386A; experiment: Antiviral activity in MT4 cells, low MOI strain selected at 15.000 μM, day 59; settings: for Fold resistance: Comp. 1 15.000 μM, vs wild type; for EC50: Human immunodeficiency virus 1, MT4, Comp. 1 15.000 μM, read-out: median(EC50 (μM))
Experimental: as §1, §2, §3, §4

HIV-1/LAI [10] = experiment: In vitro selection of resistant strains, high MOI, MT4-LTR-EGFP cells; settings: starting strain LAI, 0.200 μM, emerging L100L/I, Y181C, T386A
Experimental: as §5, §6

[11] = system: HIV-1/LAI-derived strain Y181C, G190E, T386A; experiment: Antiviral activity in MT4 cells, low MOI strain selected at 1.000 μM, day 35; settings: for Fold resistance: Comp. 1 1.000 μM, vs wild type; for EC50: Human immunodeficiency virus 1, MT4, Comp. 1 1.000 μM, read-out: median(EC50 (μM))
Experimental: as §1, §2, §3, §4

[12] = system: HIV-1/LAI-derived strain I031L, A062A/V, Y181C, G190E, T386A; experiment: Antiviral activity in MT4 cells, low MOI strain selected at 15.000 μM, day 42; settings: for Fold resistance: Comp. 1 15.000 μM, vs wild type; for EC50: Human immunodeficiency virus 1, MT4, Comp. 1 15.000 μM, read-out: median(EC50 (μM))
Experimental: as §1, §2, §3, §4

Row | Structure (SMILES) | Fold resistance [1] [fold] | EC50 [1] [µM] | Fold resistance [2] [fold] | EC50 [2] [µM] | EC50 [3] [µM] | Fold resistance [3] [fold] | Fold resistance [5] [fold] | EC50 [5] [µM] | EC50 (HIV-1/LAI [6]) [µM] | Fold resistance (HIV-1/LAI [6]) [fold] | Fold resistance [7] [fold] | EC50 [7] [µM] | Fold resistance [8] [fold] | EC50 [8] [µM] | Fold resistance [9] | EC50 [9] [µM] | Fold resistance [11] [fold] | EC50 [11] [µM] | Fold resistance [12] [fold] | EC50 [12] [µM] | also measured
1 | Cc1cc(C#N)cc(C)c1Oc1nc(Nc2ccc(C#N)cc2)nc(N)c1Br [Compound 1, Benzonitrile, 4-[[6-amino-5-bromo-2-[(4-cyanophenyl)-amino]-4-pyrimidinyl]oxy]-3,5-dimethyl-] | 282 | 0.394 | 24 | 0.0334 | 0.11 | 78 | 21 | 0.0298 | 0.0014 | 1 | 90 | 0.126 | 16 | 0.0228 | >7,143 fold | > 10 | 155 | 0.217 | 441 | 0.618 | Days to breakthrough (HIV-1/LAI [4]; 0.040 μM): day 15; Days to breakthrough (HIV-1/LAI [4]; 0.200 μM, E006E/K, M230I): day 22; Days to breakthrough (HIV-1/LAI [4]; 0.200 μM, M164M/I, D186D/N, M230M/I): day 28; Days to breakthrough (HIV-1/LAI [4]; 1.000 μM, G190E): day 35; Days to breakthrough (HIV-1/LAI [4]; 5.000 μM, I031L/I, F116F/L, G190E): day 42; Days to breakthrough (HIV-1/LAI [4]; 5.000 μM, I031L/I, G190E): day 35; Days to breakthrough (HIV-1/LAI [4]; 15.000 μM, I031L, A062A/V, L074L/V, G190E): day 59; Days to breakthrough (HIV-1/LAI [4]; 15.000 μM, I031L, A062A/V, G190E): day 42; Days to breakthrough (HIV-1/LAI [10]): day 25
2 | Cc1ccnc2c1NC(=O)c1cccnc1N2C1CC1 [Nevirapine] | >131 | > 10 | >131 | > 10 |  |  | >131 | > 10 | 0.0763 | 1 | >131 | > 10 | >131 | > 10 | >131 fold | > 10 | >131 | > 10 | >131 | > 10 | 
3 | O=C1Nc2ccc(Cl)cc2[C@@](C#CC2CC2)(C(F)(F)F)O1 [Efavirenz] |  |  | 7 | 0.0067 | 0.208 | 208 | 7 | 0.0067 | 0.001 | 1 | 44 | 0.0442 | 7 | 0.0072 | >10,000 fold | > 10 | 46 | 0.0465 | 209 | 0.209 | 
